Data reported in patent US20170202792A1, “METHOD FOR TREATING TAU-ASSOCIATED DISEASES” (NATIONAL TAIWAN NORMAL UNIVERSITY, priority 2016, published 2017).

How the values were obtained:
GRP78 = experiment: Western blot of GRP78 expression in tauRD-DsRed SH-SY5Y cells; format: cell-based, human; settings: untreated = 100%
Excerpt: Furthermore, chaperones are molecules essential for proper protein folding which play a key role in protein-folding disorders in central nervous system. […] Moreover, the upregulation of endoplasmic reticulum chaperones such as glucose-regulated protein, 78 kDa (GRP78) is a cellular protective response against AD (Hoshino et al., 2007. Endoplasmic reticulum chaperones inhibit the production of amyloid-(3 peptides. Biochem. J. 402, 581-589). Accordingly, the GRP78 and HSPB1 expression in tauRD-DsRed SH-SYSY cells treated by Congo red and compound (I) with or without doxycycline were analyzed.
Western blotting analysis was applied for examining the expressions of HSPB1 and GRP78, the method was as follows: total proteins were extracted using RIPA buffer, which comprised 50 mM Tris-HCl, 150 mM NaCl, 1 mM EDTA, 1 mM EGTA, 0.1% SDS, 0.5% sodium deoxycholate, 1% Triton X-100, and a protease inhibitor cocktail (Calbiochem). […] Next, immunoreactive bands were detected using horseradish peroxidase-conjugated goat anti-mouse, goat anti-rabbit, or donkey anti-goat IgG antibodies (1:5000; GeneTex) and chemiluminescent substrate (Millipore).

[1] = system: phosphorylated tau protein; experiment: Western blot of mouse hippocampal tissue, phosphorylated tau; format: in vivo; settings: hyperglycemic 3×Tg-AD mice; 0.25 mg/kg i.p. daily vs DMSO
Description: Hyperglycemia was induced by streptozotocin (STZ) to accelerated Alzheimer's disease progression of 6-month-old male transgenic 3×Tg−AD mice. Half of the 3×Tg−AD mice (n=30) received STZ (100 mg/kg) intraperitoneal injection at days 1, 2, 8, and 9 respectively as the high blood glucose group (HBG); another half of the 3×Tg-AD mice (n=30) received sodium citrate (0.1 M) at the same time points as the normal blood glucose group (NBG). […] Both mouse body weight (BW) and blood glucose (BG) were monitored every week.
Mice were sacrificed after MWM and hippocampi were isolated for analyzing several protein expression levels by means of western blot. The protein of the hippocampi was quantified by BCA assay (Pierce), wherein 25 μg of protein was separated by SDS-PAGE and then transferred to PVDF film. Next, protein was blocked for reducing non-specific signals, and reacted with primary antibodies (GSK-3β, pS9-GSK-3β (non-activated), pT216-GSK-3β(activated), pS202Tau, pS396Tau, pT231Tau, HT7 (total Tau)), and secondary antibodies (anti-rabbit, anti-mouse IgG HRP-linked antibody; 1:10,000; Amersham Pharmacia Biotech). β-actin was used as the loading control, ECL kit was used to detect the antigen-antibody complex, and LAS-4000 (Fujifilm) was used for imaging and quantification.

[2] = system: GFAP (astrocytes) and Iba1 (microglia); experiment: Immunohistochemical staining of GFAP and Iba1 (neuro-inflammation in hippocampus); format: in vivo, mouse; settings: 0.25 mg/kg i.p. daily 28 days
Description: (§1) Hyperglycemia was induced by streptozotocin (STZ) to accelerated Alzheimer's disease progression of 6-month-old male transgenic 3×Tg−AD mice. Half of the 3×Tg−AD mice (n=30) received STZ (100 mg/kg) intraperitoneal injection at days 1, 2, 8, and 9 respectively as the high blood glucose group (HBG); another half of the 3×Tg-AD mice (n=30) received sodium citrate (0.1 M) at the same time points as the normal blood glucose group (NBG). Then, HBG and NBG were divided into two groups respectively to give four groups such as NBG-compound (I), HBG-compound (I), NBG-DMSO, and HBG-DMSO with n=15 in each group; wherein 0.25 mg/kg of compound (I) (in 30 μL) were intraperitoneal injected into those mice of NBG-compound (I) and HBG-compound (I) groups daily since day 14 for 28 days, and 30 μL of DMSO solvent were intraperitoneal injected into those mice of NBG-DMSO and HBG-DMSO groups daily since day 14 for 28 days. Both mouse body weight (BW) and blood glucose (BG) were monitored every week.
(§2) After the brain tissue of the mice were fixed and dehydrated, the tissue was cryosectioned (30 μm). The cryosections were then washed with phosphate buffered saline (PBS) three times. After the optimal cutting temperature compound (OCT) was removed, 3% H2O2was used to remove the endogenous peroxidase, and the cryosection was blocked by the blocking solution for 1 hour to reduce non-specific antigen reactions. The primary antibodies GFAP (astrocytes) and Iba1 (microglia) were added and reacted for 12 hours, the secondary antibody (1:200 dilution in blocking solution, Vecter) was added and reacted for 1 hour, and then, the avidin-biotin complex was added and reacted for 1 hour. Finally, DAB-kit was used for coloring. All the stained sections were attached to the slides, dried, dehydrated, and mounted for imaging and quantification (Image Pro Plus) to evaluate the neuro-inflammation in mouse hippocampus. The quantification results were shown in Table 2, wherein ↑↑↑, ↓↓↓:p<0.001.

[3] = system: cholinergic, serotonergic and noradrenergic neurons; experiment: Immunohistochemical staining in brain region (ChAT, TH, 5HT neurons); format: in vivo, mouse; settings: for 5HT (serotonergic neurons in the Raphe nucleus) quantification / TH (noradrenergic neurons in the LC region) quantification: 0.25 mg/kg i.p. daily 28 days
Description: as §1
Neurons including the cholinergic neurons in the medial septum (MS), vertical diagonal band of Broca (VDB), and horizontal diagonal band of Broca (HDB) regions; the serotonergic neurons in the Raphe nucleus; and the noradrenergic neurons in the locus coeruleus (LC) region, which are related to cognition in the other brain regions were examined.
as §2, with “(PBS) for” for “(PBS)”, “cryosections were” for “cryosection was”, “(ChAT, TH, 5HT)” for “GFAP (astrocytes) and Iba1 (microglia)”, “Plus).” for “Plus) to evaluate the neuro-inflammation in mouse hippocampus. The quantification results were shown in Table 2, wherein ↑↑↑, ↓↓↓:p<0.001.”

## CCCCC/C=C\C/C=C\C/C=C\C/C=C\CCCC(=O)Nc1ccc(O)cc1 [compound (I), (5Z, 8Z, 11Z,14Z)-N-(4-Hydroxyphenyl)icosa-5 ,8 , 11,14-tetraen amide]
GRP78
  expression of GRP78 relative to untreated cells: 189%
[1]
  expression level of phosphorylated tau protein in hippocampus: lower than that of the mice administrated with DMSO
[2]; HBG 3×Tg-AD mice
  GFAP staining quantification: 15.63 ± 2.05↓↓↓
  Iba1 staining quantification: 29.43 ± 0.78↓↓↓
[2]; NBG 3×Tg-AD mice
  GFAP staining quantification: 3.33 ± 1.02
  Iba1 staining quantification: 34.25 ± 2.19
[3]; HBG 3×Tg-AD mice
  5HT (serotonergic neurons in the Raphe nucleus) quantification: 33.00 ± 1.78↑↑↑
  TH (noradrenergic neurons in the LC region) quantification: 56.89 ± 4.45↓
[3]; NBG 3×Tg-AD mice
  5HT (serotonergic neurons in the Raphe nucleus) quantification: 31.80 ± 2.04
  TH (noradrenergic neurons in the LC region) quantification: 75.75 ± 3.12
[3]; data not shown, among groups
  cholinergic neurons (ChAT; MS, VDB, HDB regions): no difference was identified
